Laboratory results taken from PubChem BioAssay (NCI).
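The compound was tested at five concentrations on cells cultured in 96-well plates, with a 48-hour exposure period. TGI marks complete inhibition of growth.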

Tests used:
Experiment in all cases: DTP human tumour cell line panel, 48 h
786-0 renal = tested on: 786-0 renal
A498 renal = tested on: A498 renal
A549 NSCLC = tested on: A549 NSCLC
ACHN renal = tested on: ACHN renal
BT-549 breast = tested on: BT-549 breast
CAKI-1 renal = tested on: CAKI-1 renal
COLO 205 colon = tested on: COLO 205 colon
DU-145 prostate = tested on: DU-145 prostate
EKVX NSCLC = tested on: EKVX NSCLC
HCC-2998 colon = tested on: HCC-2998 colon
HCT-116 colon = tested on: HCT-116 colon
HCT-15 colon = tested on: HCT-15 colon
HOP-62 NSCLC = tested on: HOP-62 NSCLC
HOP-92 NSCLC = tested on: HOP-92 NSCLC
HT29 colon = tested on: HT29 colon
IGROV1 ovarian = tested on: IGROV1 ovarian
K-562 leukemia = tested on: K-562 leukemia
KM12 colon = tested on: KM12 colon
M14 melanoma = tested on: M14 melanoma
MCF7 breast = tested on: MCF7 breast
MDA-MB-231 breast = tested on: MDA-MB-231 breast
MDA-MB-435 = tested on: MDA-MB-435
MDA-N = tested on: MDA-N
MOLT-4 leukemia = tested on: MOLT-4 leukemia
NCI-H226 lung = tested on: NCI-H226 lung
NCI-H23 lung = tested on: NCI-H23 lung
NCI-H460 lung = tested on: NCI-H460 lung
NCI/ADR-RES ovarian = tested on: NCI/ADR-RES ovarian
OVCAR-3 ovarian = tested on: OVCAR-3 ovarian
OVCAR-4 ovarian = tested on: OVCAR-4 ovarian
OVCAR-5 ovarian = tested on: OVCAR-5 ovarian
OVCAR-8 ovarian = tested on: OVCAR-8 ovarian
PC-3 prostate = tested on: PC-3 prostate
RPMI-8226 leukemia = tested on: RPMI-8226 leukemia
RXF 393 renal = tested on: RXF 393 renal
SF-268 CNS = tested on: SF-268 CNS
SF-295 CNS = tested on: SF-295 CNS
SF-539 CNS = tested on: SF-539 CNS
SK-MEL-2 melanoma = tested on: SK-MEL-2 melanoma
SK-MEL-28 melanoma = tested on: SK-MEL-28 melanoma
SK-OV-3 ovarian = tested on: SK-OV-3 ovarian
SN12C renal = tested on: SN12C renal
SNB-19 CNS = tested on: SNB-19 CNS
SNB-75 CNS = tested on: SNB-75 CNS
SR leukemia = tested on: SR leukemia
SW-620 colon = tested on: SW-620 colon
T-47D breast = tested on: T-47D breast
TK-10 renal = tested on: TK-10 renal
U251 CNS = tested on: U251 CNS
UACC-257 melanoma = tested on: UACC-257 melanoma
UACC-62 melanoma = tested on: UACC-62 melanoma
UO-31 renal = tested on: UO-31 renal
CCRF-CEM leukemia = tested on: CCRF-CEM leukemia
HL-60(TB) leukemia = tested on: HL-60(TB) leukemia
LOX IMVI melanoma = tested on: LOX IMVI melanoma
MALME-3M melanoma = tested on: MALME-3M melanoma
NCI-H522 lung = tested on: NCI-H522 lung
SK-MEL-5 melanoma = tested on: SK-MEL-5 melanoma

COc1ccc(/C=C2/SC(c3ccccc3)N(NC(=O)CCCCCCCCC(=O)NN3C(=O)/C(=C\c4ccc(OC)c(OC)c4)SC3c3ccccc3)C2=O)cc1OC (stereo unspecified)
TGI (786-0 renal): 91.3 µM | TGI (A498 renal): > 100 µM | TGI (A549 NSCLC): > 100 µM | TGI (ACHN renal): 71.8 µM | TGI (BT-549 breast): > 100 µM | TGI (CAKI-1 renal): > 100 µM | TGI (COLO 205 colon): > 100 µM | TGI (DU-145 prostate): > 100 µM | TGI (EKVX NSCLC): 94.8 µM | TGI (HCC-2998 colon): > 100 µM | TGI (HCT-116 colon): > 100 µM | TGI (HCT-15 colon): > 100 µM | TGI (HOP-62 NSCLC): > 100 µM | TGI (HOP-92 NSCLC): 66.3 µM | TGI (HT29 colon): > 100 µM | TGI (IGROV1 ovarian): 61.7 µM | TGI (K-562 leukemia): 62 µM | TGI (KM12 colon): > 100 µM | TGI (M14 melanoma): > 100 µM | TGI (MCF7 breast): > 100 µM | TGI (MDA-MB-231 breast): > 100 µM | TGI (MDA-MB-435): > 100 µM | TGI (MDA-N): 76.2 µM | TGI (MOLT-4 leukemia): 60.5 µM | TGI (NCI-H226 lung): > 100 µM | TGI (NCI-H23 lung): > 100 µM | TGI (NCI-H460 lung): > 100 µM | TGI (NCI/ADR-RES ovarian): > 100 µM | TGI (OVCAR-3 ovarian): > 100 µM | TGI (OVCAR-4 ovarian): > 100 µM | TGI (OVCAR-5 ovarian): > 100 µM | TGI (OVCAR-8 ovarian): > 100 µM | TGI (PC-3 prostate): > 100 µM | TGI (RPMI-8226 leukemia): 72.6 µM | TGI (RXF 393 renal): > 100 µM | TGI (SF-268 CNS): > 100 µM | TGI (SF-295 CNS): 72.9 µM | TGI (SF-539 CNS): 79.1 µM | TGI (SK-MEL-2 melanoma): > 100 µM | TGI (SK-MEL-28 melanoma): > 100 µM | TGI (SK-OV-3 ovarian): > 100 µM | TGI (SN12C renal): > 100 µM | TGI (SNB-19 CNS): > 100 µM | TGI (SNB-75 CNS): > 100 µM | TGI (SR leukemia): 98.3 µM | TGI (SW-620 colon): > 100 µM | TGI (T-47D breast): > 100 µM | TGI (TK-10 renal): > 100 µM | TGI (U251 CNS): > 100 µM | TGI (UACC-257 melanoma): > 100 µM | TGI (UACC-62 melanoma): 98.7 µM | TGI (UO-31 renal): > 100 µM

CCOC(=O)c1sc2nc(SC)nc(Nc3ccc4c(c3)OCO4)c2c1N
TGI (786-0 renal): > 100 µM | TGI (A498 renal): 96.9 µM | TGI (A549 NSCLC): > 100 µM | TGI (ACHN renal): 69.4 µM | TGI (BT-549 breast): > 100 µM | TGI (CAKI-1 renal): > 100 µM | TGI (CCRF-CEM leukemia): > 100 µM | TGI (COLO 205 colon): > 100 µM | TGI (DU-145 prostate): > 100 µM | TGI (EKVX NSCLC): 77.5 µM | TGI (HCC-2998 colon): > 100 µM | TGI (HCT-116 colon): > 100 µM | TGI (HCT-15 colon): > 100 µM | TGI (HL-60(TB) leukemia): > 100 µM | TGI (HOP-62 NSCLC): > 100 µM | TGI (HOP-92 NSCLC): 71.6 µM | TGI (IGROV1 ovarian): > 100 µM | TGI (K-562 leukemia): > 100 µM | TGI (KM12 colon): > 100 µM | TGI (LOX IMVI melanoma): > 100 µM | TGI (M14 melanoma): > 100 µM | TGI (MALME-3M melanoma): 97.6 µM | TGI (MCF7 breast): > 100 µM | TGI (MDA-MB-231 breast): > 100 µM | TGI (MDA-MB-435): > 100 µM | TGI (MDA-N): > 100 µM | TGI (MOLT-4 leukemia): > 100 µM | TGI (NCI-H226 lung): > 100 µM | TGI (NCI-H23 lung): > 100 µM | TGI (NCI-H460 lung): > 100 µM | TGI (NCI-H522 lung): > 100 µM | TGI (NCI/ADR-RES ovarian): > 100 µM | TGI (OVCAR-3 ovarian): > 100 µM | TGI (OVCAR-4 ovarian): > 100 µM | TGI (OVCAR-5 ovarian): > 100 µM | TGI (PC-3 prostate): > 100 µM | TGI (RPMI-8226 leukemia): > 100 µM | TGI (RXF 393 renal): 31 µM | TGI (SF-295 CNS): 84.8 µM | TGI (SF-539 CNS): > 100 µM | TGI (SK-MEL-2 melanoma): > 100 µM | TGI (SK-MEL-28 melanoma): 63.1 µM | TGI (SK-MEL-5 melanoma): > 100 µM | TGI (SN12C renal): > 100 µM | TGI (SNB-19 CNS): > 100 µM | TGI (SR leukemia): > 100 µM | TGI (SW-620 colon): > 100 µM | TGI (T-47D breast): > 100 µM | TGI (TK-10 renal): > 100 µM | TGI (U251 CNS): > 100 µM | TGI (UACC-257 melanoma): > 100 µM | TGI (UACC-62 melanoma): > 100 µM | TGI (UO-31 renal): > 100 µM

CC(C)Sc1nncc(/C(N)=N/O)n1
TGI (786-0 renal): > 100 µM | TGI (A498 renal): > 100 µM | TGI (A549 NSCLC): > 100 µM | TGI (ACHN renal): > 100 µM | TGI (BT-549 breast): > 100 µM | TGI (CAKI-1 renal): > 100 µM | TGI (CCRF-CEM leukemia): > 100 µM | TGI (COLO 205 colon): > 100 µM | TGI (DU-145 prostate): > 100 µM | TGI (EKVX NSCLC): > 100 µM | TGI (HCC-2998 colon): > 100 µM | TGI (HCT-116 colon): > 100 µM | TGI (HCT-15 colon): > 100 µM | TGI (HOP-62 NSCLC): > 100 µM | TGI (HOP-92 NSCLC): > 100 µM | TGI (HT29 colon): > 100 µM | TGI (IGROV1 ovarian): > 100 µM | TGI (K-562 leukemia): > 100 µM | TGI (KM12 colon): > 100 µM | TGI (LOX IMVI melanoma): > 100 µM | TGI (M14 melanoma): > 100 µM | TGI (MALME-3M melanoma): > 100 µM | TGI (MCF7 breast): > 100 µM | TGI (MDA-MB-231 breast): > 100 µM | TGI (MDA-MB-435): > 100 µM | TGI (MDA-N): > 100 µM | TGI (MOLT-4 leukemia): > 100 µM | TGI (NCI-H226 lung): > 100 µM | TGI (NCI-H23 lung): > 100 µM | TGI (NCI-H460 lung): > 100 µM | TGI (NCI-H522 lung): > 100 µM | TGI (NCI/ADR-RES ovarian): > 100 µM | TGI (OVCAR-3 ovarian): > 100 µM | TGI (OVCAR-4 ovarian): > 100 µM | TGI (OVCAR-5 ovarian): > 100 µM | TGI (OVCAR-8 ovarian): > 100 µM | TGI (PC-3 prostate): > 100 µM | TGI (RPMI-8226 leukemia): > 100 µM | TGI (RXF 393 renal): > 100 µM | TGI (SF-268 CNS): > 100 µM | TGI (SF-295 CNS): > 100 µM | TGI (SF-539 CNS): > 100 µM | TGI (SK-MEL-28 melanoma): > 100 µM | TGI (SK-MEL-5 melanoma): > 100 µM | TGI (SK-OV-3 ovarian): > 100 µM | TGI (SN12C renal): > 100 µM | TGI (SNB-19 CNS): > 100 µM | TGI (SNB-75 CNS): > 100 µM | TGI (SR leukemia): > 100 µM | TGI (SW-620 colon): > 100 µM | TGI (T-47D breast): > 100 µM | TGI (TK-10 renal): > 100 µM | TGI (U251 CNS): > 100 µM | TGI (UACC-257 melanoma): > 100 µM | TGI (UACC-62 melanoma): > 100 µM | TGI (UO-31 renal): > 100 µM
